How the values were obtained:
[1] = system: ISC-enriched organoids; test: Primary screen, 384-well 2.5-D organoid differentiation (ENR+CD, 6 days): basal lysozyme secretion (LYZ.NS); type: cell-based, murine; details: for Dose.FC.LYZ.NS: FC vs plate median; for Z.LYZ.NS: standard z score of FC; for Dose.FC.LYZ.NS (log 2 fold change): vs plate median
From the text: (§1) High-throughput screening.

[2] = system: ISC-enriched organoids; test: Primary screen, 384-well 2.5-D organoid differentiation (ENR+CD, 6 days, Target Selective Inhibitor Library, vs whole-plate median): ATP (CellTiter-Glo 3D, CTG); details: for Dose.FC.CTG: FC vs plate median; for Z.CTG: standard z score of FC; for Dose.FC.CTG (log 2 fold change): vs plate median
[3] = system: ISC-enriched organoids; test: Primary screen, 384-well 2.5-D organoid differentiation (ENR+CD, 6 days): carbachol-induced lysozyme secretion (LYZ.S); type: cell-based, murine; details: for Dose.FC.LYZ.S: FC vs plate median; for Dose.FC.LYZ.S (log 2 fold change): vs plate median
From the text: as §1

[4] = dose 0.08 uM (1st of 4 lines per treatment; dose not printed in this part)
[5] = dose 0.40 uM (2nd of 4 lines per treatment; dose not printed in this part)
[6] = dose 2.00 uM (3rd of 4 lines per treatment; dose not printed in this part)
[7] = dose 10.00 uM (4th of 4 lines per treatment; dose not printed in this part)
[8] = primary screen, dose 0.08 uM, ENR+CD 6 days
[9] = primary screen, dose 0.40 uM, ENR+CD 6 days
[10] = primary screen, dose 2.00 uM, ENR+CD 6 days
[11] = primary screen, dose 10.00 uM, ENR+CD 6 days

SMILES: CC(C)N(CC[C@H](c1ccccc1)c1cc(CO)ccc1O)C(C)C [4CE°8C]
- SSMD.LYZ.NS_Rep (strictly standardized mean difference) [1, 4]: 0.497
- SSMD.LYZ.NS_Rep (strictly standardized mean difference) [1, 5]: 0.226
- SSMD.LYZ.NS_Rep (strictly standardized mean difference) [1, 6]: 0.128
- SSMD.LYZ.NS_Rep (strictly standardized mean difference) [1, 7]: −0.861
- Dose.FC.LYZ.NS [1, 8]: 0.069 log 2 fold change
- Z.LYZ.NS ([1]; primary screen, dose 0.08 uM): 0.601
- Dose.FC.LYZ.NS [1, 9]: 0.047 log 2 fold change
- Z.LYZ.NS ([1]; primary screen, dose 0.40 uM): 0.413
- Dose.FC.LYZ.NS [1, 10]: 0.016 log 2 fold change
- Z.LYZ.NS ([1]; primary screen, dose 2.00 uM): 0.138
- Dose.FC.LYZ.NS [1, 11]: −0.095 log 2 fold change
- Z.LYZ.NS ([1]; primary screen, dose 10.00 uM): −0.827
- SSMD.CTG_Rep (strictly standardized mean difference) [2, 4]: −0.402
- SSMD.CTG_Rep (strictly standardized mean difference) [2, 5]: 0.023
- SSMD.CTG_Rep (strictly standardized mean difference) [2, 6]: −0.340
- SSMD.CTG_Rep (strictly standardized mean difference) [2, 7]: −0.109
- Dose.FC.CTG [2, 8]: −0.111 log 2 fold change
- Z.CTG ([2]; primary screen, dose 0.08 uM): −0.265
- Dose.FC.CTG [2, 9]: 0.007 log 2 fold change
- Z.CTG ([2]; primary screen, dose 0.40 uM): 0.018
- Dose.FC.CTG [2, 10]: −0.162 log 2 fold change
- Z.CTG ([2]; primary screen, dose 2.00 uM): −0.387
- Dose.FC.CTG [2, 11]: −0.039 log 2 fold change
- Z.CTG ([2]; primary screen, dose 10.00 uM): −0.094
- SSMD.LYZ.S_Rep (strictly standardized mean difference) [3, 4]: 0.194
- Z.LYZ.S (standard z score) [3, 4]: 0.205
- SSMD.LYZ.S_Rep (strictly standardized mean difference) [3, 5]: 0.053
- Z.LYZ.S (standard z score) [3, 5]: 0.073
- SSMD.LYZ.S_Rep (strictly standardized mean difference) [3, 6]: −0.217
- Z.LYZ.S (standard z score) [3, 6]: −0.358
- SSMD.LYZ.S_Rep (strictly standardized mean difference) [3, 7]: −0.707
- Z.LYZ.S (standard z score) [3, 7]: −0.836
- Dose.FC.LYZ.S [3, 8]: 0.032 log 2 fold change
- Dose.FC.LYZ.S [3, 9]: 0.011 log 2 fold change
- Dose.FC.LYZ.S [3, 10]: −0.055 log 2 fold change
- Dose.FC.LYZ.S [3, 11]: −0.129 log 2 fold change

SMILES: C[S+]([O-])c1ccc(-c2nc(-c3ccc(F)cc3)c(-c3ccncc3)[nH]2)cc1 (stereo not drawn) [SB203580]
- Z.LYZ.NS (standard z score) ([1]; Dose 0.08 uM, primary screen): 0.805
- Dose.FC.LYZ.NS (log 2 fold change) ([1]; Dose 0.08 uM, primary screen): 0.092
- Z.LYZ.NS (standard z score) ([1]; Dose 0.40 uM, primary screen): 1.109
- Dose.FC.LYZ.NS (log 2 fold change) ([1]; Dose 0.40 uM, primary screen): 0.127
- Z.LYZ.NS (standard z score) ([1]; Dose 2.00 uM, primary screen): 0.453
- Dose.FC.LYZ.NS (log 2 fold change) ([1]; Dose 2.00 uM, primary screen): 0.052
- Z.LYZ.NS (standard z score) ([1]; Dose 10.00 uM, primary screen): 0.199
- Dose.FC.LYZ.NS (log 2 fold change) ([1]; Dose 10.00 uM, primary screen): 0.023
- Z.CTG (standard z score) ([2]; Dose 0.08 uM, primary screen): 0.479
- Dose.FC.CTG (log 2 fold change) ([2]; Dose 0.08 uM, primary screen): 0.201
- Z.CTG (standard z score) ([2]; Dose 0.40 uM, primary screen): 0.356
- Dose.FC.CTG (log 2 fold change) ([2]; Dose 0.40 uM, primary screen): 0.149
- Z.CTG (standard z score) ([2]; Dose 2.00 uM, primary screen): 0.567
- Dose.FC.CTG (log 2 fold change) ([2]; Dose 2.00 uM, primary screen): 0.237
- Z.CTG (standard z score) ([2]; Dose 10.00 uM, primary screen): 0.435
- Dose.FC.CTG (log 2 fold change) ([2]; Dose 10.00 uM, primary screen): 0.182
- Dose.FC.LYZ.S (log 2 fold change) ([3]; Dose 0.08 uM, primary screen): 0.148
- Dose.FC.LYZ.S (log 2 fold change) ([3]; Dose 0.40 uM, primary screen): 0.098
- Dose.FC.LYZ.S (log 2 fold change) ([3]; Dose 2.00 uM, primary screen): 0.077
- Dose.FC.LYZ.S (log 2 fold change) ([3]; Dose 10.00 uM, primary screen): 0.069

SMILES: C[C@H]1COC2(CCN(c3nc(=O)c4cc(C(F)(F)F)cc([N+](=O)[O-])c4s3)CC2)O1 (racemic) [BTZ043 Racemate]
- Dose.FC.LYZ.NS [1, 8]: 0.131 log 2 fold change
- Z.LYZ.NS ([1]; primary screen, dose 0.08 uM): 1.138
- Dose.FC.LYZ.NS [1, 9]: 0.186 log 2 fold change
- Z.LYZ.NS ([1]; primary screen, dose 0.40 uM): 1.619
- Dose.FC.LYZ.NS [1, 10]: 0.089 log 2 fold change
- Z.LYZ.NS ([1]; primary screen, dose 2.00 uM): 0.776
- Dose.FC.LYZ.NS [1, 11]: 0.100 log 2 fold change
- Z.LYZ.NS ([1]; primary screen, dose 10.00 uM): 0.870
- Dose.FC.CTG [2, 8]: 0.497 log 2 fold change
- Z.CTG ([2]; primary screen, dose 0.08 uM): 1.187
- Dose.FC.CTG [2, 9]: 0.545 log 2 fold change
- Z.CTG ([2]; primary screen, dose 0.40 uM): 1.303
- Dose.FC.CTG [2, 10]: 0.063 log 2 fold change
- Z.CTG ([2]; primary screen, dose 2.00 uM): 0.150
- Dose.FC.CTG [2, 11]: 0.327 log 2 fold change
- Z.CTG ([2]; primary screen, dose 10.00 uM): 0.782
- Dose.FC.LYZ.S [3, 8]: 0.199 log 2 fold change
- Dose.FC.LYZ.S [3, 9]: 0.252 log 2 fold change
- Dose.FC.LYZ.S [3, 10]: 0.038 log 2 fold change
- Dose.FC.LYZ.S [3, 11]: 0.070 log 2 fold change

SMILES: Cc1ccc([C@@H]2O[C@H](CO)[C@@H](O)[C@H](O)[C@H]2O)cc1Cc1ccc(-c2ccc(F)cc2)s1 [Canagliflozin]
- Dose.FC.LYZ.NS ([1]; Dose 0.08 uM, ENR+CD, 6 days): −0.027 log 2 fold change
- Z.LYZ.NS ([1]; Dose 0.08 uM): −0.233
- Dose.FC.LYZ.NS ([1]; Dose 0.40 uM, ENR+CD, 6 days): −0.046 log 2 fold change
- Z.LYZ.NS ([1]; Dose 0.40 uM): −0.398
- Dose.FC.LYZ.NS ([1]; Dose 2.00 uM, ENR+CD, 6 days): 0.025 log 2 fold change
- Z.LYZ.NS ([1]; Dose 2.00 uM): 0.214
- Dose.FC.LYZ.NS ([1]; Dose 10.00 uM, ENR+CD, 6 days): −0.064 log 2 fold change
- Z.LYZ.NS ([1]; Dose 10.00 uM): −0.556
- Dose.FC.CTG ([2]; Dose 0.08 uM, ENR+CD, 6 days): −0.240 log 2 fold change
- Z.CTG ([2]; Dose 0.08 uM): −0.572
- Dose.FC.CTG ([2]; Dose 0.40 uM, ENR+CD, 6 days): −0.098 log 2 fold change
- Z.CTG ([2]; Dose 0.40 uM): −0.235
- Dose.FC.CTG ([2]; Dose 2.00 uM, ENR+CD, 6 days): 0.042 log 2 fold change
- Z.CTG ([2]; Dose 2.00 uM): 0.101
- Dose.FC.CTG ([2]; Dose 10.00 uM, ENR+CD, 6 days): −0.079 log 2 fold change
- Z.CTG ([2]; Dose 10.00 uM): −0.188
- Dose.FC.LYZ.S ([3]; Dose 0.08 uM, ENR+CD, 6 days): 0.014 log 2 fold change
- Dose.FC.LYZ.S ([3]; Dose 0.40 uM, ENR+CD, 6 days): −0.032 log 2 fold change
- Dose.FC.LYZ.S ([3]; Dose 2.00 uM, ENR+CD, 6 days): 0.028 log 2 fold change
- Dose.FC.LYZ.S ([3]; Dose 10.00 uM, ENR+CD, 6 days): −0.033 log 2 fold change

Reference: patent publication US20230398130A1, “METHODS AND COMPOSITIONS FOR DIFFERENTIATING STEM CELLS” (Massachusetts Institute of Technology, priority 2020, published 2023)
